Results reported in ChEMBL document CHEMBL3272195, “Synthesis and antimicrobial activity of certain 6H-1,2,4-oxadiazin-3(2H)-ones” (1977).
Values after ≈ are worked out from the molar mass of the structure shown. Active and inactive are the calls of the source. No cut-off for these calls is given here.

Legend:
[1] = system: Human rhinovirus A13; assay: Antiviral activity against Rhinovirus A13; type: functional
[2] = system: Candida albicans; assay: Antimicrobial activity against Candida albicans after 48 hrs by broth dilution assay; type: functional
[3] = system: Trichophyton mentagrophytes; assay: Antimicrobial activity against Trichophyton mentagrophytes after 48 hrs by broth dilution assay; type: functional
[4] = system: Human respirovirus 3; assay: Antiviral activity against Parainfluenza virus 3; type: functional, organism-based
[5] = system: Human alphaherpesvirus 1; assay: Antiviral activity against Herpes simplex virus type 1; type: functional, organism-based
[6] = system: Pseudomonas aeruginosa; assay: Antimicrobial activity against Pseudomonas aeruginosa after 24 hrs by broth dilution assay; type: functional
[7] = system: Staphylococcus aureus; assay: Antimicrobial activity against Staphylococcus aureus after 24 hrs by broth dilution assay; type: functional
[8] = system: Escherichia coli; assay: Antimicrobial activity against Escherichia coli after 24 hrs by broth dilution assay; type: functional
[9] = system: Pseudomonas aeruginosa; assay: Antimicrobial activity against Pseudomonas aeruginosa paper disc treated with 24 hrs urine sample from 100 mg/kg, po compound treated ICR mouse measured after 18 to 24 hrs by disc diffusion assay; type: functional, organism-based; design: dose 100 mg/kg
[10] = system: Escherichia coli; assay: Antimicrobial activity against Escherichia coli paper disc treated with 24 hrs urine sample from 100 mg/kg, po compound treated ICR mouse measured after 18 to 24 hrs by disc diffusion assay; type: functional, organism-based; design: dose 100 mg/kg

| Structure (SMILES) | Activity [1] | MIC [2] | MIC [3] | Activity [4] | Activity [5] | MIC [6] | MIC [7] | MIC [8] | Activity [9] | Activity [10] |
| --- | --- | --- | --- | --- | --- | --- | --- | --- | --- | --- |
| NNC1=NC(=O)NOC1 | inactive | > 400 µM | > 400 µM | inactive | inactive | > 400 µM | > 400 µM | > 400 µM |  |  |
| O=C1CONC(=O)N1 | inactive | > 400 µM | > 400 µM | inactive | inactive | 40 µM (≈ 4.64 µg/mL) | 20 µM (≈ 2.32 µg/mL) | 10 µM (≈ 1.16 µg/mL) | inactive | inactive |
| O=C1NOCC(=S)N1 | inactive | 320 µM (≈ 42.3 µg/mL) | 320 µM (≈ 42.3 µg/mL) | inactive | inactive | 20 µM (≈ 2.64 µg/mL) | 10 µM (≈ 1.32 µg/mL) | < 5 µM | inactive | inactive |
| CNC1=NC(=O)NOC1 | inactive | > 400 µM | 320 µM (≈ 41.3 µg/mL) | inactive | inactive | > 400 µM | 320 µM (≈ 41.3 µg/mL) | 320 µM (≈ 41.3 µg/mL) |  |  |
| NC1=NC(=O)NOC1 | inactive | > 400 µM | > 400 µM | inactive | inactive | 80 µM (≈ 9.21 µg/mL) | 320 µM (≈ 36.8 µg/mL) | 10 µM (≈ 1.15 µg/mL) | Active | Active |
| O=C1N=C(NCc2ccccc2)CON1 | inactive | > 400 µM | > 400 µM | inactive | inactive | > 400 µM | 400 µM (≈ 82.1 µg/mL) | 320 µM (≈ 65.7 µg/mL) |  |  |
| CCOC(=O)CONC(N)=O |  | > 400 µM | > 400 µM |  |  | 320 µM (≈ 51.9 µg/mL) | 80 µM (≈ 13 µg/mL) | 160 µM (≈ 25.9 µg/mL) |  |  |
| CN1OCC(=S)NC1=O | inactive | 400 µM (≈ 58.5 µg/mL) | 160 µM (≈ 23.4 µg/mL) | inactive | inactive | > 400 µM | > 400 µM | > 400 µM |  |  |
| O=C1N=C(NC(c2ccccc2)c2ccccc2)CON1 | inactive | > 400 µM | > 400 µM | inactive | inactive | 320 µM (≈ 90 µg/mL) | 160 µM (≈ 45 µg/mL) | 320 µM (≈ 90 µg/mL) |  |  |
| O=C1NC(=S)CON1Cc1ccccc1 | inactive | 320 µM (≈ 71.1 µg/mL) | 160 µM (≈ 35.6 µg/mL) | inactive | inactive | > 400 µM | > 400 µM | > 400 µM |  |  |
| O=C1N=C(NO)CON1 | inactive | > 400 µM | > 400 µM | inactive | inactive | > 400 µM | > 400 µM | > 400 µM |  |  |
| O=C1CON(C(=O)OCc2ccccc2)C(=O)N1 | inactive | > 400 µM | > 400 µM | inactive | inactive | 20 µM (≈ 5 µg/mL) | 80 µM (≈ 20 µg/mL) | 20 µM (≈ 5 µg/mL) | inactive | inactive |
| CN(C)C1=NC(=O)NOC1 | inactive | > 400 µM | > 400 µM | inactive | inactive | > 400 µM | 320 µM (≈ 45.8 µg/mL) | 160 µM (≈ 22.9 µg/mL) |  |  |
